Measured values as given in publication PMC2837340 (ACS Chemical Neuroscience, 2009).

Experiments:
[1] = molecular target: horse spleen apoferritin (HSAF) (Equus caballus, UniProt P02791); assay: isothermal titration calorimetry; type: binding
[2] = molecular target: T1, Shaw2 K+ channel (Shaw2 F335A) (Drosophila melanogaster, UniProt P17972, F335A); assay: two-electrode voltage clamp, Xenopus oocytes; type: cell-based; settings: read-out: % inhibition at 2 mM
T1 sequence (P17972 1-498 F335A): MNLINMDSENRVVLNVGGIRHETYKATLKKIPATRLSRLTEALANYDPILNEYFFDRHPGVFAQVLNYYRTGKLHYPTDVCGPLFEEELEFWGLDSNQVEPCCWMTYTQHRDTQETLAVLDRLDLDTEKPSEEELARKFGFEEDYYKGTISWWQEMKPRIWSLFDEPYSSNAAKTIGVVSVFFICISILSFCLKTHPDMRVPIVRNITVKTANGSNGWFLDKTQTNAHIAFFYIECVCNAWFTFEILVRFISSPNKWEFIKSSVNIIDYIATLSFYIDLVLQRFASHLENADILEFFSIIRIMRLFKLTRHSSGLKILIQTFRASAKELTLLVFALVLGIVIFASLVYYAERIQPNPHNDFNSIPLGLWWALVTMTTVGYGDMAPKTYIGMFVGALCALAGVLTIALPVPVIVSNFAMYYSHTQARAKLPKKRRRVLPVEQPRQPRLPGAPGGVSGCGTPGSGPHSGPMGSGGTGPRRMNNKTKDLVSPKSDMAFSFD

Sequence of horse spleen apoferritin (HSAF) (P02791 2-175): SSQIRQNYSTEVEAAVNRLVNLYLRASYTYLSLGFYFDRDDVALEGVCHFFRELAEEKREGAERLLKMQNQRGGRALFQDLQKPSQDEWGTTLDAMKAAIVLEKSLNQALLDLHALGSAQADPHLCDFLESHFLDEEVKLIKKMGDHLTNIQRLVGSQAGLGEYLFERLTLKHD
Sequence of horse spleen apoferritin (HSAF) (Q8MIP0 2-182 partner): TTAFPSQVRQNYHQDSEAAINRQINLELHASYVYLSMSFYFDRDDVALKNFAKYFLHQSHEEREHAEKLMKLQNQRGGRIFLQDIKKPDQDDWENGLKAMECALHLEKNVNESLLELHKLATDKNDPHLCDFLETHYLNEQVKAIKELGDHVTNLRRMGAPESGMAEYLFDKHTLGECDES

Row | Compound | Kd [1] | inhibition at 2000 µM [2]
1 | FC(F)(F)C(Cl)OC(F)(F)C1N=N1 (racemic) [compound 1, azi-isoflurane] | 6 ± 1 µM | 77 ± 0.2%
2 | FC(F)OC(Cl)C(F)(F)F (stereo not shown) [isoflurane] | 58 ± 2 µM | 67%
